Reference: paper PMC10493395, “Optimization of a small molecule inhibitor of secondary nucleation in α-synuclein aggregation” (Frontiers in Molecular Biosciences, 2023)

Target: T1, α-synuclein (Homo sapiens, UniProt P37840)
T1 construct: gene SNCA; preformed fibrils of recombinant wild-type α-synuclein
Assay: fibril ultracentrifugation depletion with LC-MS of unbound compound in the supernatant, dose-response fit (second estimate […] by varying fibril concentration)
Assay type: binding

Q: How did the Kd turn out when O=C1NN(c2ccccc2)C(=O)C1=Cc1coc2ccc(Cl)cc2c1=O [69.2, compound 69.2] was run?
A: Its Kd is 6 ± 1 µM.
